The values below come from patent US20150037394A1, “DRUG DELIVERY FORMULATIONS” (King's College London, priority 2011, published 2015).

The structures appear in SMILES notation. Where a name gives a salt, the structure may show the parent alone.

Data set [1] in a line: Visually determined saturated solubility in various solvents. Type of data set: physicochemical. How it is done: The solubility experiments were performed by weighing 0.5±0.05 g of each excipient into glass vials (28 mL). The API (5.0±0.5 mg) was weighed by difference on a plastic weigh boat and transferred into the corresponding vial. […] Once saturation was achieved the mg/g API to solvent ratio was recorded.

The conditions of data set [2]: http://www.drugbank.ca/; cited from earlier work.
For data set [3] the following is noted: literature sources; sildenafil base value marked experimentally determined; cited from earlier work.
The conditions of data set [4]: after 15 minutes exposure to an infrared bulb; cited from earlier work.

By Log P is commonly meant a log measure of how a compound divides between an organic and an aqueous phase. As for `Nc1nc2c(ncn2COCCO)c(=O)[nH]1` [Acyclovir], the “Visually determined saturated solubility” value in data set [1] (Solvent Arlasolve DMI) is less than 0.29 mg/g; in data set [1] (Solvent Diethyl Ether) it was less than 0.54 mg/g; in data set [1] (Solvent EtOH), less than 0.35 mg/g; in data set [1] (Solvent IPA), less than 0.34 mg/g; in data set [1] (Solvent Isoamyl Alcohol), less than 0.31 mg/g; in data set [1] (Solvent MeOH) it was 0.29 to 0.62 mg/g. For the same compound, the “Visually determined saturated solubility” value in data set [1] (Solvent PEG-400) was 0.799 to 1.07 mg/g; in data set [1] (Solvent PG), 1.66 to 2.39 mg/g; in data set [1] (Solvent Phenoxyethanol), 0.54 to 1.08 mg/g; in data set [1] (Solvent Transcutol P) it was less than 0.30 mg/g. In addition, the “Log P” value in data set [2] is given as −1.56.
For `O=C(O)Cc1ccccc1Nc1c(Cl)cccc1Cl` [Diclofenac diethyl amine], in data set [3], the “mg/ml figure listed among physicochemical properties (solubility)” value was 4.1 mg/mL.
On to `O=C(O)Cc1ccccc1Nc1c(Cl)cccc1Cl` [Diclofenac free acid], for which the “Visually determined saturated solubility” value in data set [1] (Solvent Arlasolve DMI) fell in the range of 57.90 to 110.45 mg/g; in data set [1] (Solvent Diethyl Ether) it was 21.28 to 49.89 mg/g; in data set [1] (Solvent EtOH) it was 31.60 to 62.79 mg/g; in data set [1] (Solvent IPA), 29.97 to 58.09 mg/g; in data set [1] (Solvent Isoamyl Alcohol), 34.25 to 53.55 mg/g; in data set [1] (Solvent MeOH) it was 34.43 to 68.06 mg/g. The “Visually determined saturated solubility” value in data set [1] (Solvent PEG-400) was 28.83 to 51.73 mg/g; in data set [1] (Solvent PG), 10.15 to 20.50 mg/g; in data set [1] (Solvent Phenoxyethanol), 34.32 to 81.12 mg/g; in data set [1] (Solvent Transcutol P), 108.73 to 162.17 mg/g.
In the case of `CCCc1nn(C)c2c(=O)[nH]c(-c3cc(S(=O)(=O)N4CCN(C)CC4)ccc3OCC)nc12` [Sildenafil base], the “mg/ml figure listed among physicochemical properties (solubility)” value in data set [3] was less than 0.83 mg/mL.
As to `CCCc1nn(C)c2c(=O)[nH]c(-c3cc(S(=O)(=O)N4CCN(C)CC4)ccc3OCC)nc12` [Sildenafil citrate], the “Visually determined saturated solubility” value is less than 0.88 mg/g in data set [1] (Solvent Arlasolve DMI); less than 0.90 mg/g in data set [1] (Solvent Diethyl Ether); 0.54 to 1.06 mg/g in data set [1] (Solvent EtOH); less than 1.27 mg/g in data set [1] (Solvent IPA); less than 0.45 mg/g in data set [1] (Solvent Isoamyl Alcohol); 6.60 to 10.02 mg/g in data set [1] (Solvent MeOH). The “Visually determined saturated solubility” value in data set [1] (Solvent PEG-400) fell in the range of 3.85 to 6.32 mg/g; in data set [1] (Solvent PG), 1.90 to 2.86 mg/g; in data set [1] (Solvent Phenoxyethanol), 6.56 to 9.88 mg/g; in data set [1] (Solvent Transcutol P) it was 2.14 to 2.85 mg/g.
On to `O=[N+]([O-])OCC(CO[N+](=O)[O-])O[N+](=O)[O-]` [nitroglycerin], for which the “Fold increase in permeation” value in data set [4] was 2-3 fold.
